Data set [1] deals with Tetrabenazine ptosis. As to the kind of experiment: Tetrabenazine antagonism on mice (ptosis). Particulars: for ED50: Mus musculus, oral, 30 min before Tetrabenazine 50 mg./kg. i.p. Format: in vivo. As to the method: The test is carried out by the method of Hoffmeister et al. adapted to mice. For each does groups of 10 animals are used. The mice of the test groups are treated orally with the test compound while the controld animals receive the corresponding vehicle p.o. After 30 minutes a 50 mg./kg. i.p. dose of Tetrabenazine is administered. The animals with closed eye-lids are counted after 30, 60, 90 and 120 minutes, respectively, in each group. The average ptosis is calculated on the basis of all measurements in each group and expressed as the percentage of the deviation (ptosis) from the control group.

Data set [2] in a line: Acute toxicity on mice. The conditions noted are these: mouse, in vivo, po. As for the experimental part:
White mice belonging to the CFLP strain (body weight 18-22 g; both male and female) are used, 10 animals for each dose. The test compound is administered orally in a volumen of 20 ml/kg. After treatment the animals are observed for a period of 7 days. The animals are kept in a plastic cage, at room temperature. The animals get tap water and standard mouse fodder ad libitum.

The test system of data set [3] is Reserpin ptosis. As to the kind of experiment: Reserpin ptosis antagonism on mice. The data set is classed as in vivo. Particulars: for ED50: Mus musculus, sc, 1 h, compound given 60 min after reserpine 6 mg./kg. s.c. As to the method: The average ptosis is calculated on the basis of all measurements in each group and expressed as the percentage of the deviation (ptosis) from the control group. Groups consisting of 10 mice are used for each does. The animals are treated with a 6 mg./kg. s.c. dose of reserpine, the test compound is administered after 60 minutes. The control animals receive a vehicle. The animals with closed eye-lids are counted in each group after 60 and 120 minutes. The evaluation is carried out as disclosed in the ptosis test No. 3.

Data set [4] deals with Hexobarbital narcosis. As to the kind of experiment: Hexobarbital narcosis on mice. The conditions noted are these: po; for ED50: Mus musculus, read-out: Hexobarbital narcosis ED50; for Therapeutical index (Hexobarbital narcosis): mouse, in vivo. The data set is classed as in vivo. As for the experimental part: Groups consisting of 6 mice are used for each dose. The animals are treated orally with the test compound (the control group receives a vehicle), whereby sleeping is induced 1 hour later by administering a 40 mg./kg. i.v. dose of Hexobarbital both to the test and control groups.
Animals which have a sleeping time more than 2.5 times longer than that of the control group are considered to show a positive reaction. ED50 values are calculated from the thus-transofrmed data.

Data set [5] relates to writhing (acetic acid). The data set is described as follows: Analgesic effect, acetic acid writhing test on mice. The data set is classed as in vivo. Particulars: for ED50: Mus musculus, oral, 60 min pre-treatment, 0.75% acetic acid i.p.; for Therapeutical index (writhing test): mouse, in vivo, po. As for the experimental part:
Method: acetic acid "writhing effect" on mice
To mice weighing 20-25 g. a 0.75% acetic acid solution is administered intraperitoneally in a volume of 20 ml./kg. According to the method of Neubold the characteristic writhing reactions are counted for each animal between the 5th and 10th minute and the total writhing number obtained for this 5 minutes' period is expressed as the percentage of the control group. The test compound is administered orally, the test is carried out by using a pre-treatment period of 60 minutes and 10 animals are used for each dose.

The subject of data set [6] is gastrointestinal peristalsis. As to the kind of experiment: Antiperistaltic effect on mice (gastrointestinal peristalsis, carbon suspension, method of Stickney et al.). The data set is classed as in vivo, mice (white, male and female). The conditions noted are these: for ED50: Mus musculus, read-out: Antiperistaltic effect ED50; for Therapeutical index (antiperistaltic effect): mouse, in vivo. As to the method:
The […] effect is tested according to the method of […] et al. on white male and female mice weighing 20-25 g. […] The groups consist of 10 mice for each dose. The animals of the control group are treated at the same time under identical conditions with a vehicle. Twenty minutes after the administration of the carbon suspension the mice are sacrificed. The total length of the intestines and that of the intestines filled with carbon is measured.

Setting [7] is: 7 days observation, Litchfield-Wilcoxon.
[8] abbreviates: 60 min before 10% carbon suspension.

The structures appear in SMILES notation. Read-outs that look alike come from different tables or passages of the source. Where only a bound is given, the exact number is not on record here.

On to `Cc1n[n+]2ccc3ccccc3c2nc1NCCO` [Example 36, 2-(2-Hydroxyethylamino)-3-methyl-as-triazino[3,2-a]isoquinolinium ethanesulfonate], for which, in data set [1], the median effective dose (ED50) was found to be 20 mg/kg and the “Therapeutical index TI (Tetrabenazine ptosis antagonism)” value turned out to be 70.0. For the same compound, the LD50 at 168 h in data set [2] was 1400 mg/kg.

Take `Cc1n[n+]2ccc3ccccc3c2nc1NCCCN(C)C` [Example 5, 2-(3-Dimethylaminopropylamino)-3-methyl-as-triazino[3,2-a]isoquinolinium ethanesulfonate]: the LD50 at 168 h in data set [2] (setting [7]) turned out to be 2000 mg/kg.

The compound `c1ccc(CNc2nc3c4ccccc4cc[n+]3nc2-c2ccccc2)cc1` [Example 8, 2-Benzylamino-3-phenyl-as-triazino[3,2-a]isoquinolinium ethanesulfonate] showed an LD50 at 168 h in data set [2] of 340 mg/kg. In data set [3], it took a dose of 31 mg/kg to reach the 50% effect level (ED50) and the “Therapeutical index TI (Reserpin ptosis antagonism)” value worked out at 11.0.

Turning to `Cc1n[n+]2ccc3ccccc3c2nc1N` [Example 38, 2-Amino-3-methyl-as-triazino[3,2-a]isoquinolinium ethanesulfonate], in data set [4], the ED50 amounted to 17 mg/kg and the “Therapeutical index (Hexobarbital narcosis)” value was 22.4. Besides, in data set [5], the ED50 worked out at 65 mg/kg and the “Therapeutical index (writhing test)” value stood at 5.8. Besides, in data set [1], the 50% effect level (ED50) was put at a dose of 9.2 mg/kg and the “Therapeutical index TI (Tetrabenazine ptosis antagonism)” value is on record as 41.3. The compound further had a 50% lethal dose (LD50) at 168 h in data set [2] of 380 mg/kg.

The compound `OCCNc1nc2ccc3ccccc3[n+]2nc1-c1ccccc1` [Example 25, 3-(2-Hydroxyethylamino)-2-phenyl-as-triazino[3,2-a]quinolinium ethanesulfonate] came in with an LD50 at 168 h in data set [2] (setting [7]) of 500 mg/kg.

`OCCNc1nc2c3ccccc3cc[n+]2nc1-c1ccccc1` [Example 37, 2-(2-Hydroxyethylamino)-3-phenyl-as-triazino[3,2-a]isoquinolinium ethanesulfonate] registered an LD50 at 168 h in data set [2] (setting [7]) of 750 mg/kg.

As to `Cc1n[n+]2ccc3ccccc3c2[nH]c1=O` [Example 9, 3-Methyl-2(1H)-oxo-as-triazino[3,2-a]isoquinolinium-5-ium-ethanesulfonate], in data set [4], the ED50 is 56 mg/kg and the “Therapeutical index (Hexobarbital narcosis)” value is 16.1. For the same compound, in data set [5], the ED50 amounted to 107 mg/kg and the “Therapeutical index (writhing test)” value is given as 8.4. In addition, the LD50 at 168 h in data set [2] is 900 mg/kg.

Consider `O=c1[nH]c2ccc3ccccc3[n+]2nc1-c1ccccc1` [Example 27, 2-Phenyl-3(4H)-oxo-as-triazino[3,2-a]quinoline-11ium ethanesulfonate], for which, in data set [5], the ED50 worked out at 23.8 mg/kg and the “Therapeutical index (writhing test)” value came out at 42.0.

Consider `CCCC(C)(COC(N)=O)COC(N)=O` [Meprobamate, reference compound], for which, in data set [4], the ED50 is 260 mg/kg and the “Therapeutical index (Hexobarbital narcosis)” value was determined as 4.2.

In the case of `CN(C)CCCNc1nc2c3ccccc3cc[n+]2nc1-c1ccccc1` [Example 6, 2-(3-Dimethylaminopropylamino)-3-phenyl-as-triazino[3,2-a]isoquinolinium ethanesulfonate], in data set [4], the ED50 is 35 mg/kg and the “Therapeutical index (Hexobarbital narcosis)” value worked out at 24.3. Also, in data set [5], the 50% effective dose (ED50) came to 120 mg/kg and the “Therapeutical index (writhing test)” value turned out to be 7.1. This compound also returned an LD50 at 168 h in data set [2] of 850 mg/kg.

On to `Cc1n[n+]2c3ccccc3ccc2n(C)c1=O` [Example 17, 2,4-Dimethyl-3(4H)-oxo-as-triazino[3,2-a]isoquinoline-11-ium ethanesulfonate], for which the LD50 at 168 h in data set [2] stood at 1000 mg/kg. Also, in data set [3], the ED50 was 40 mg/kg and the “Therapeutical index TI (Reserpin ptosis antagonism)” value is 25.0.

Consider `Cn1c(=O)c(-c2ccccc2)n[n+]2c3ccccc3ccc12` [Example 18, 2-Phenyl-4-methyl-3(4H)-oxo-as-triazino[3,2-a]quinoline-11-ium ethanesulfonate], for which the LD50 at 168 h in data set [2] amounted to 2000 mg/kg. In data set [3], the ED50 is 40 mg/kg and the “Therapeutical index TI (Reserpin ptosis antagonism)” value was 50.0.

Compound `Cc1n[n+]2c(ccc3ccccc32)nc1NCCO` [Example 24, 2-Methyl-3(2-hydroxyethylamino)as-triazino[3,2-a]quinolinium ethanesulfonate] had an LD50 at 168 h in data set [2] (setting [7]) of 130 mg/kg.

In data set [2] (setting [7]), `c1ccc2c(c1)cc[n+]1ncc(N3CCOCC3)nc21` [Example 2, 2-Morpholino-as-triazino[3,2-a]isoquinolinium ethanesulfonate] came in with an LD50 at 168 h of 450 mg/kg.

For the compound `O=c1nc2c3ccccc3ccn2nc1-c1ccccc1` [Example 11, 3-Phenyl-as-triazino[3,2-a]isoquinoline-2(5H)-one], the ED50 in data set [6] (setting [8]) was roughly 220 mg/kg. Further, in data set [6], the “Therapeutical index (antiperistaltic effect)” value is 9.1. In data set [2], this compound showed an LD50 at 168 h of 2000 mg/kg. In data set [3], the ED50 is 33 mg/kg and the “Therapeutical index TI (Reserpin ptosis antagonism)” value is 60.6.

Consider `CC(=O)Nc1ccc(O)cc1` [Paracetamol, reference compound], for which the ED50 in data set [5] stood at 180 mg/kg.

Take `Cc1n[n+]2ccc3ccccc3c2nc1N1CCOCC1` [Example 34, 2-Morpholino-3-methyl-as-triazino[3,2-a]isoquinolinium ethanesulfonate]: the LD50 at 168 h in data set [2] (setting [7]) was 1200 mg/kg.

Regarding `Cc1n[n+]2ccc3ccccc3c2nc1NCc1ccccc1` [Example 40, 2-Benzylamino-3-methyl-as-triazino[3,2-a]isoquinolinium ethanesulfonate], the ED50 in data set [6] (setting [8]) amounted to 6.5 mg/kg. Further, in data set [6], the “Therapeutical index (antiperistaltic effect)” value is reported as 13.85. Moreover, in data set [2], the LD50 at 168 h was 90 mg/kg.

Turning to `Nc1nc2c3ccccc3cc[n+]2nc1-c1ccccc1` [Example 39, 2-Amino-3-phenyl-as-triazino[3,2-a]isoquinolinium ethanesulfonate], the LD50 at 168 h in data set [2] (setting [7]) worked out at 500 mg/kg.

For `CC1=N[n+]2ccc3ccccc3c2NC1(C)O` (stereo not shown) [Example 1, 2,3-Dimethyl-2-hydroxy-1,2-dihydro-as-triazino[3,2-a]isoquinolinium ethanesulfonate], in data set [5], the ED50 worked out at 60 mg/kg and the “Therapeutical index (writhing test)” value was found to be 7.3. The LD50 at 168 h in data set [2] came out at 440 mg/kg.

The compound `OC1C=N[n+]2ccc3ccccc3c2N1` (stereo not shown) [Example 16, 2-Hydroxy-1,2-dihydro-as-triazino[3,2-a]isoquinolinium ethanesulfonate] displayed a 50% lethal dose (LD50) at 168 h in data set [2] (setting [7]) of 650 mg/kg.

For the compound `CN(C)CCC=C1c2ccccc2CCc2ccccc21` [Amitriptylin, reference compound], in data set [1], the ED50 stood at 12 mg/kg and the “Therapeutical index TI (Tetrabenazine ptosis antagonism)” value amounted to 18.7. Further, in data set [3], the ED50 is 65 mg/kg and the “Therapeutical index TI (Reserpin ptosis antagonism)” value is on record as 3.5.

As to `O=c1cn[n+]2c(ccc3ccccc32)[nH]1` [Example 26, 3(4H)-Oxo-as-triazino[3,2-a]quinoline-11ium ethanesulfonate], the LD50 at 168 h in data set [2] (setting [7]) worked out at 450 mg/kg.

In the case of `COc1ccc(Cc2nccc3cc(OC)c(OC)cc23)cc1OC` [Papaverin, reference compound], the ED50 in data set [6] was greater than 280 mg/kg. Also, the “inhibition (antiperistaltic effect)” value in data set [6] (printed beside ED50 above 280 mg./kg.) was 36.1%.

On to `OCCNc1cn[n+]2ccc3ccccc3c2n1` [Example 3, 2-(2-Hydroxyethylamino)-as-triazino[3,2-a]isoquinolinium ethanesulfonate], for which, in data set [1], it took a dose of 50 mg/kg to reach the 50% effect level (ED50) and the “Therapeutical index TI (Tetrabenazine ptosis antagonism)” value is reported as 10.0. The same compound had a median lethal dose (LD50) at 168 h in data set [2] of 500 mg/kg.

On to `Cc1n[n+]2c(ccc3ccccc32)[nH]c1=O` [Example 21, 2-Methyl-3(4H)-oxo-as-triazino[3,2-a]quinoline-11-ium ethanesulfonate], for which the LD50 at 168 h in data set [2] (setting [7]) is 700 mg/kg.

The ED50 is the dose at which the effect has come halfway, by size or by number of responders. A word on the LD50: it is the dose at which mortality reaches 50%. A high value points to lower toxicity.

Values taken from patent US4994448A, “Condensed quinolinium and isoquinolinium derivatives” (Egis Gyogyszergyar, priority 1987, dated 1991).
